Reference: ChEMBL document CHEMBL1138746, “Indolebutylamines as selective 5-HT(1A) agonists” (J Med Chem, 2004)

Key:
D(4) dopamine receptor = biological target: T1, D(4) dopamine receptor (Homo sapiens, UniProt P21917); assay: Inhibition of dopamine D4 receptor
T1 sequence (P21917 whole entry): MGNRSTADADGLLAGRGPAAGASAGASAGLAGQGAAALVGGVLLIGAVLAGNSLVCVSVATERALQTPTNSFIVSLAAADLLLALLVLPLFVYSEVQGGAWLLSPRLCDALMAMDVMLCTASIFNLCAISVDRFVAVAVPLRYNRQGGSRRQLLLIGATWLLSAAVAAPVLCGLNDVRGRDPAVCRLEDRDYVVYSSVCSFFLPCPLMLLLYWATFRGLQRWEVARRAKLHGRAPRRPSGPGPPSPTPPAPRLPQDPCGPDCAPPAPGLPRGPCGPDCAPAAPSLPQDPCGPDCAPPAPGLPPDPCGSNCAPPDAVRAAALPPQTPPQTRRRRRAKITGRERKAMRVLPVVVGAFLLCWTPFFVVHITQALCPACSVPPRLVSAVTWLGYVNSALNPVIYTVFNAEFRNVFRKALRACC

[1] = biological target: T2, Adrenergic receptor alpha-2 (Homo sapiens, UniProt P08913+P18825+P18089); assay: Inhibition of Alpha-2 adrenergic receptor; type: protein assay
T2 sequence (P08913 whole entry): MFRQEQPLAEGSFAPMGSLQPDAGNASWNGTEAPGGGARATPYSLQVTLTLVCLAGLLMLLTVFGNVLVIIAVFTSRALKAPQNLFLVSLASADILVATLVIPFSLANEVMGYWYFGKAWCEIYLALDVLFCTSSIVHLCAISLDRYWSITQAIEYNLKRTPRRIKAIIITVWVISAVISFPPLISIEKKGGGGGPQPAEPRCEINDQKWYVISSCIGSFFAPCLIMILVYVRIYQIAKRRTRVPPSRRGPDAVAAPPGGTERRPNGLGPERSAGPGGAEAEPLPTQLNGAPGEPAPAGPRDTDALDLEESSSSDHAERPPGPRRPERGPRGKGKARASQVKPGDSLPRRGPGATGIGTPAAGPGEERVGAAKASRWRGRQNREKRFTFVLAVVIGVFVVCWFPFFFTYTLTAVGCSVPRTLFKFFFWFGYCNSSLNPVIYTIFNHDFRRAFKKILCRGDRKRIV
T2 sequence (P18825 whole entry): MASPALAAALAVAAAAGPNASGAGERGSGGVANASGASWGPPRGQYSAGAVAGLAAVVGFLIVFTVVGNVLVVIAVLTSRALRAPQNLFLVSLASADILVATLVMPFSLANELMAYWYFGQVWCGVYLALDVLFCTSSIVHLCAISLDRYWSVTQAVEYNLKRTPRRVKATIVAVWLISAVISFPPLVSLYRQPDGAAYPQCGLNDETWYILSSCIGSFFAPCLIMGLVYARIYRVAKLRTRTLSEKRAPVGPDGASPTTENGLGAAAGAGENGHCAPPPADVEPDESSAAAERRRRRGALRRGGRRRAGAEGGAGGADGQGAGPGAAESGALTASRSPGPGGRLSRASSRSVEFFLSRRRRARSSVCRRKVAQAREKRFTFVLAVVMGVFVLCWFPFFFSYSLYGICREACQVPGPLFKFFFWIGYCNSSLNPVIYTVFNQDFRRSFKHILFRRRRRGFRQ
T2 sequence (P18089 whole entry): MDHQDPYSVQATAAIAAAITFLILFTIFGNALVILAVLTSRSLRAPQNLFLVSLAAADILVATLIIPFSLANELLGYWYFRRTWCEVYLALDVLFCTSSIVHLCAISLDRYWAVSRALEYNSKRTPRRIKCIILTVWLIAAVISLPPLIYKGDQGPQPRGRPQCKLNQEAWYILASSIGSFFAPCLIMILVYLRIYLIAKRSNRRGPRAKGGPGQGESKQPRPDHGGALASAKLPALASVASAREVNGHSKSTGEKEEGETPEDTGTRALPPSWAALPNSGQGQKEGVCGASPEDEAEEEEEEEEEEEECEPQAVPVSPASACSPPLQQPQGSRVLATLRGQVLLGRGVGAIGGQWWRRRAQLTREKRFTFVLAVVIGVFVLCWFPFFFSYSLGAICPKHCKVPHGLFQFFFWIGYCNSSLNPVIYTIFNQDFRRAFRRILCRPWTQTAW

[2] = Inhibition of hydroxytryptamine 2C receptor
[3] = Inhibition of Histamine H1 receptor
D(3) dopamine receptor = D(3) dopamine receptor (Homo sapiens, UniProt P35462); assay: Inhibition of dopamine D3 receptor
Chain of D(3) dopamine receptor (P35462 whole entry): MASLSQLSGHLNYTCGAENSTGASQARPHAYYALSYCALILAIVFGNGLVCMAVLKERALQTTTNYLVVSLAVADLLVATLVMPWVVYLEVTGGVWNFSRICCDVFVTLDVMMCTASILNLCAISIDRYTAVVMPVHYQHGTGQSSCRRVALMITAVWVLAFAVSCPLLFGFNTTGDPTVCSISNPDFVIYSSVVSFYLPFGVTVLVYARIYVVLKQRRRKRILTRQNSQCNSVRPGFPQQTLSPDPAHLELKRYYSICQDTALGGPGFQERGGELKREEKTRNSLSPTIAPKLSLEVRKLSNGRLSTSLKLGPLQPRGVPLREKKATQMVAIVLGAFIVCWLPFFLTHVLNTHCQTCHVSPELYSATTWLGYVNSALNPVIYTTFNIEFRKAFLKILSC

[4] = Inhibition of hydroxytryptamine 1D receptor
[5] = biological target: T3, 5-hydroxytryptamine receptor 1A (Rattus norvegicus, UniProt P19327); assay: Inhibition of 8-OH DPAT bindign to rat hydroxytryptamine 1A receptor in hippocampal membranes
T3 sequence (P19327 whole entry): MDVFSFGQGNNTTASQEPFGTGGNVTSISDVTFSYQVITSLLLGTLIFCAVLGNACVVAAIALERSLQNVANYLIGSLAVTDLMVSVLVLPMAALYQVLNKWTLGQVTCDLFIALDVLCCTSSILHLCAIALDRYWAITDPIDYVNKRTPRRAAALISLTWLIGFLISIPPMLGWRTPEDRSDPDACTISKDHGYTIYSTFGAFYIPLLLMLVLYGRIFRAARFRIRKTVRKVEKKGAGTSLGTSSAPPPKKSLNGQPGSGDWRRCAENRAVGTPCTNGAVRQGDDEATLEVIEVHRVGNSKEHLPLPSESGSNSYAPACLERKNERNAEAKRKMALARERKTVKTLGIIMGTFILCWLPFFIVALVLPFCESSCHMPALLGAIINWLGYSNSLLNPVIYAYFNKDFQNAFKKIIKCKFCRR

IC50 (D(4) dopamine receptor): 1800 nM
IC50 [1]: 1000 nM
IC50 [2]: > 1000 nM
IC50 [3]: 24 nM
IC50 (D(3) dopamine receptor): 1200 nM
IC50 [4]: 3000 nM
IC50 [5]: 8.2 nM
SMILES: O=C1c2ccccc2S(=O)(=O)N1CCCCN1CCN(c2ncccn2)CC1 [IPSAPIRONE]
